Holding throughout (assay type): in vivo
The subject of one test is Diabrotica balteata. Kind of test: Diabrotica balteata spray test (germinated wheat grains). To be noted: 168 h, application rate 100 g/ha (=32 μg/cavity), after 7 days, beetle larvae on wheat, 100% = all wheat plants grown as in untreated, uninfected control, read-out: efficacy in %. An excerpt:
Diabrotica Balteata—Spray Test Solvent: 78 parts by weight of acetone • • 1.5 parts by weight of dimethylformamide Emulsifier: alkylaryl polyglycol ether An appropriate active ingredient formulation is produced by dissolving 1 part by weight of active ingredient with the stated parts by weight of solvent and making the solution up to the desired concentration with water containing an emulsifier concentration of 1000 ppm. Further test concentrations are produced by diluting the formulation with emulsifier-containing water. Pre-swollen wheat grains (Triticum aestivum) are incubated in a multiwell plate filled with agar and a little water for one day (5 seed grains per cavity). The germinated wheat grains are sprayed with an active ingredient formulation of the desired concentration. Subsequently, each cavity is infected with 10-20 beetle larvae of Diabrotica balteata. After 7 days, efficacy in % is determined. 100% means that all wheat plants have grown as in the untreated, uninfected control; 0% means that no wheat plant has grown.

In the next test the test system is Meloidogyne incognita. As to the kind of experiment: Meloidogyne incognita test (lettuce, gall formation). To be noted: application rate 20 ppm, after 14 days, 100% = no galls found. The text has this: Meloidogyne Incognita Test Solvent: 125.0 parts by weight of acetone An appropriate active ingredient formulation is produced by mixing 1 part by weight of active ingredient with the stated amount of solvent and diluting the concentrate to the desired concentration with water. Vessels are filled with sand, active ingredient solution, an egg/larvae suspension of the southern root-knot nematode (Meloidogyne incognita) and lettuce seeds. The lettuce seeds germinate and the plants develop. The galls develop on the roots. After 14 days, the nematicidal efficacy in % is determined by the formation of galls. 100% means that no galls were found; 0% means that the number of galls on the treated plants corresponds to the untreated control.

Test [1] relates to Myzus persicae. As to the kind of experiment: Myzus persicae spray test (Chinese cabbage leaf disks). The conditions noted are these: application rate 100 g/ha, after 5 days, 100% = all aphids killed. The text has this:
(§1) Myzus persicae—Spray Test Solvent: 78 parts by weight of acetone • • 1.5 parts by weight of dimethylformamide Emulsifier: alkylaryl polyglycol ether An appropriate active ingredient formulation is produced by dissolving 1 part by weight of active ingredient with the stated parts by weight of solvent and making the solution up to the desired concentration with water containing an emulsifier concentration of 1000 ppm. Further test concentrations are produced by diluting the formulation with emulsifier-containing water. Leaf disks of Chinese cabbage (Brassica pekinensis) infested by all stages of the green peach aphid (Myzus persicae) are sprayed with an active ingredient formulation of the desired concentration. After 5 days, efficacy in % is determined. 100% means that all of the aphids have been killed; 0% means that none of the aphids have been killed.

The test system of another test is Spodoptera frugiperda. Kind of test: Spodoptera frugiperda spray test (maize leaf disks). The conditions noted are these: foliar, 168 h, caterpillars, after 7 days, 100% = all caterpillars killed, read-out: efficacy in %; for pest or weed control at 100 g/ha: application rate 100 g/ha. An excerpt: Spodoptera frugiuerda—Spray Test
Solvent: 78.0 parts by weight of acetone • • 1.5 parts by weight of dimethylformamide
Emulsifier: alkylaryl polyglycol ether
An appropriate active ingredient formulation is produced by dissolving 1 part by weight of active ingredient with the stated parts by weight of solvent and making the solution up to the desired concentration with water containing an emulsifier concentration of 1000 ppm. Further test concentrations are produced by diluting the formulation with emulsifier-containing water.
Leaf disks of maize (Zea mays) are sprayed with an active ingredient formulation of the desired concentration and, after drying, populated with caterpillars of the fall armyworm (Spodopterafrugiperda).
After 7 days, efficacy in % is determined. 100% means that all of the caterpillars have been killed; 0% means that none of the caterpillars have been killed.

The subject of test [2] is Myzus persicae. Kind of test: Myzus persicae oral test. The conditions noted are these: application rate 20 ppm, after 5 days, 100% = all aphids killed. Here is the method:
Myzus persicae—Oral Test Solvent: 100 parts by weight of acetone An appropriate active ingredient formulation is produced by dissolving 1 part by weight of active ingredient with the specified parts by weight of solvent and making the solution up to the desired concentration with water. 50 μl of the active ingredient formulation is transferred into microtiter plates and made up to a final volume of 200 μl with 150 μl of IPL41 insect medium (33%+15% sugar). Subsequently, the plates are sealed with parafilm, which a mixed population of green peach aphids (Myzus persicae) within a second microtiter plate is able to puncture and imbibe the solution. After 5 days, efficacy in % is determined. 100% means that all of the aphids have been killed; 0% means that none of the aphids have been killed.

Test [3] deals with Myzus persicae. Kind of test: Myzus persicae spray test (bell pepper plants). To be noted: application rate 20 ppm, after 6 days, 100% = all aphids killed. The text has this:
Myzus persicae—spray test Solvent: 14 parts by weight of dimethylformamide Emulsifier: alkylaryl polyglycol ether An appropriate active ingredient formulation is produced by dissolving 1 part by weight of active ingredient with the stated parts by weight of solvent and making the solution up to the desired concentration with water containing an emulsifier concentration of 1000 ppm. Further test concentrations are produced by diluting the formulation with emulsifier-containing water. If the addition of ammonium salts or/and penetration enhancers is required, these are each added in a concentration of 1000 ppm to the formulation solution. Bell pepper plants (Capsicum annuum) severely infested with the green peach aphid (Myzus persicae) are treated by spraying with the active ingredient formulation in the desired concentration. After 6 days, the kill in % is determined. 100% means that all of the aphids have been killed; 0% means that none of the aphids have been killed.

For another test, the system named is Nezara viridula. As to the kind of experiment: Nezara viridula spray test (barley plants). The conditions noted are these: 96 h, application rate 500 g/ha, larvae, after 4 days, 100% = all shield bugs killed, read-out: efficacy in %.
From the text: as §1, with “Nezara viridula—Spray Test” for “Myzus persicae—Spray Test”, “Solvent: 78.0” for “Solvent: 78”, “water. Barley plants (Hordeum vulgare)” for “water. Leaf disks of Chinese cabbage (Brassica pekinensis) infested by all stages of the green peach aphid (Myzus persicae)”, “desired concentration and are infected with larvae of the Southern green shield bug (Nezara viridula).” for “desired concentration.”, “After 4” for “After 5”, “the shield bugs” for “the aphids”

Another test relates to Nilaparvata lugens. Kind of test: Nilaparvata lugens test (rice plants). To be noted: application rate 500 g/ha, spray, after 4 days, 100% = all planthoppers killed. An excerpt:
Nilaparvata lugens Test Solvent: 78.0 parts by weight of acetone • • 1.5 parts by weight of dimethylformamide Emulsifier: alkylaryl polyglycol ether An appropriate active ingredient formulation is produced by dissolving 1 part by weight of active ingredient with the stated parts by weight of solvent and making the solution up to the desired concentration with water containing an emulsifier concentration of 1000 ppm. Further test concentrations are produced by diluting the formulation with emulsifier-containing water. Rice plants (Oryza sativa) are sprayed with the active ingredient formulation of the desired concentration and then infected with the brown planthopper (Nilaparvata lugens). After 4 days, efficacy in % is determined. 100% means that all of the planthoppers have been killed; 0% means that none of the planthoppers have been killed.

The source of these data is US20230247994A1, “HETEROCYCLENE DERIVATIVES AS PEST CONTROL AGENTS” (Bayer Aktiengesellschaft, priority 2020, published 2023).

Turning to `CCS(=N)(=O)c1c(-c2nc3cc4c(cc3n2C)OC(F)(F)C(F)(F)O4)nc(-c2ccc(Cl)cc2)n1C` (racemic) [Example I-34, rac-2-[2-(4-Chlorophenyl)-5-(ethylsulfonimidoyl)-1-methyl-1H-imidazol-4-yl]-6,6,7,7-tetrafluoro-1-methyl-6,7-dihydro-1H-[1,4]dioxino[2,3-f]benzimidazole], the pest or weed control at 100 g/ha with Diabrotica balteata and in the test with Spodoptera frugiperda was 100% throughout. The “nematicidal efficacy in % (formation of galls)” value (“nematicidal efficacy in %” for short) in the test on Meloidogyne incognita is reported as 90%. Also, in the test on Myzus persicae [1], the efficacy in % was found to be 90%.

For the compound `CCS(=O)(=O)c1c(-c2nc3cc4c(cc3[nH]2)OC(F)(F)C(F)(F)O4)nc(C2CC2)n1C` [Example I-8, 2-[2-Cyclopropyl-5-(ethylsulfonyl)-1-methyl-1H-imidazol-4-yl]-6,6,7,7-tetrafluoro-6,7-dihydro-1H-[1,4]dioxino[2,3-f]benzimidazole], in the test with Diabrotica balteata, the pest or weed control at 100 g/ha worked out at 100%. In addition, the “nematicidal efficacy in %” value with Meloidogyne incognita was determined as 90%. The compound also showed an efficacy in % in the test on Myzus persicae [2] of 100%. Moreover, the pest or weed control at 500 g/ha in the test with Spodoptera frugiperda (application rate 500 g/ha) was determined as 100%.

Consider `CCS(=O)(=O)c1c(-c2nc3cc4c(cc3n2C)OC(F)(F)C(F)(F)O4)nc(C2CC2)n1C` [Example I-9, 2-[2-Cyclopropyl-5-(ethylsulfonyl)-1-methyl-1H-imidazol-4-yl]-6,6,7,7-tetrafluoro-1-methyl-6,7-dihydro-1H-[1,4]dioxino[2,3-f]benzimidazole], for which the pest or weed control at 100 g/ha in the test with Diabrotica balteata came to 100%; with Spodoptera frugiperda it was 83%. Also, the “kill in % (efficacy)” value with Myzus persicae [3] was determined as 99%.

For `CCS(=O)(=O)c1c(-c2nc3cc4c(cc3n2C)OC(F)(F)C(F)(F)O4)nc(-c2cccc(Cl)n2)n1C` [Example I-21, 2-[2-(6-Chloropyridin-2-yl)-5-(ethylsulfonyl)-1-methyl-1H-imidazol-4-yl]-6,6,7,7-tetrafluoro-1-methyl-6,7-dihydro-1H-[1,4]dioxino[2,3-f]benzimidazole], the pest or weed control at 100 g/ha in the test on Diabrotica balteata and in the test on Spodoptera frugiperda was 100% throughout. The pest or weed control at 500 g/ha with Nezara viridula is 100%. For the same compound, the efficacy in % in the test on Nilaparvata lugens is recorded as 90%.

For `CCS(=O)(=O)c1c(-c2nc3cc4c(cc3n2C)OC(F)(F)C(F)(F)O4)nc(-c2cccc(C3(C#N)CC3)n2)n1C` [Example I-28, 1-{6-[5-(Ethylsulfonyl)-1-methyl-4-(6,6,7,7-tetrafluoro-1-methyl-6,7-dihydro-1H-[1,4]dioxino[2,3-f]benzimidazol-2-yl)-1H-imidazol-2-yl]pyridin-2-yl}cyclopropanecarbonitrile], the pest or weed control at 500 g/ha with Nezara viridula was 100%. Also, the efficacy in % in the test with Nilaparvata lugens is listed as 100%. Besides, the pest or weed control at 100 g/ha with Spodoptera frugiperda came out at 100%.

For the compound `CCS(=O)(=O)c1c(-c2nc3cc4c(cc3n2C)OC(F)(F)C(F)(F)O4)nc(-c2cccc(Br)n2)n1C` [Example I-30, 2-[2-(6-Bromopyridin-2-yl)-5-(ethylsulfonyl)-1-methyl-1H-imidazol-4-yl]-6,6,7,7-tetrafluoro-1-methyl-6,7-dihydro-1H-[1,4]dioxino[2,3-f]benzimidazole], the pest or weed control at 100 g/ha in the test on Diabrotica balteata and in the test with Spodoptera frugiperda was 100% in each case. Besides, in the test with Nezara viridula, the pest or weed control at 500 g/ha is 100%. Moreover, the efficacy in % with Nilaparvata lugens is 100%.

Regarding `CCS(=N)(=O)c1c(-c2nc3cc4c(cc3n2C)OC(F)(F)C(F)(F)O4)nc(-c2ccc(F)cc2)n1C` (stereo not drawn) [Example I-38], the pest or weed control at 100 g/ha with Diabrotica balteata and in the test on Spodoptera frugiperda was 100% each time. Further, in the test with Meloidogyne incognita, the “nematicidal efficacy in %” value was 100%. This compound had an efficacy in % in the test with Myzus persicae [1] of 90%. Besides, in the test with Nezara viridula, the pest or weed control at 500 g/ha came to 90%.
